Results published in ChEMBL document CHEMBL4043102, “Novel 4-acetamide-2-alkylthio-N-acetanilides resembling nimesulide: Synthesis, cell viability evaluation and in silico studies” (Bioorg Med Chem, 2017).
Active and inactive are the calls of the source. The rule behind the calls is not given here.

Key:
MCF7 [1] = test: Antiproliferative activity against human MCF7 cells assessed as cell proliferation at 30 uM after 48 hrs by MTT assay relative to control; assay type: functional; conditions: MCF7, 48 h, read-out: Activity
[2] = Antiproliferative activity against NHDF assessed as cell proliferation at 30 uM after 48 hrs by MTT assay relative to control; assay type: cell-based; conditions: human, NHDF cells; read-out: Activity
MCF7 [3] = test: Antiproliferative activity against human MCF7 cells after 48 hrs by MTT assay; assay type: functional, cell-based; conditions: MCF7, 48 h
LNCaP [4] = test: Antiproliferative activity against human LNCAP cells assessed as cell proliferation at 30 uM after 48 hrs by MTT assay relative to control; assay type: functional; conditions: read-out: Activity
MCF7 [5] = test: Induction of morphological changes in human MCF7 cells assessed as cell rounding at 30 uM after 24 hrs by propidium iodide staining-based microscopic analysis; assay type: functional
LNCaP [6] = test: Antiproliferative activity against human LNCAP cells after 48 hrs by MTT assay; assay type: functional, cell-based
MCF7 [7] = test: Induction of apoptosis in human MCF7 cells assessed as reduction in viable cells at 30 uM after 24 hrs by propidium iodide staining based FACS analysis; assay type: functional, cell-based
MCF7 [8] = test: Induction of apoptosis in human MCF7 cells assessed as reduction in viable cells at 30 uM after 24 hrs by propidium iodide staining-based microscopic analysis; assay type: functional, cell-based
LNCaP [9] = test: Antiproliferative activity against human LNCAP cells assessed as cell proliferation at 1 mM after 48 hrs by MTT assay relative to control; conditions: read-out: Activity
MCF7 [10] = test: Antiproliferative activity against human MCF7 cells assessed as cell proliferation at 1 mM after 48 hrs by MTT assay relative to control; conditions: MCF7, 48 h, read-out: Activity
[11] = Antiproliferative activity against NHDF assessed as cell proliferation at 1 mM after 48 hrs by MTT assay relative to control; conditions: human, NHDF cells

SMILES	growth at 30 µM (MCF7 [1])	viability at 48 h, 30 µM [2]	IC50 (MCF7 [3])	growth at 30 µM (LNCaP [4])	also measured
CCCOc1ccccc1N(CC)C(C)=O	92.5%				
CCSc1ccccc1N(Cc1ccccc1C)C(C)=O	77%				
CC(=O)Nc1ccc(N(Cc2ccc(C)cc2C)C(C)=O)c(SCc2ccc(C)cc2C)c1	15.3%	89.9%	7.33 µM	48%	
CC(=O)N(Cc1ccccc1)c1ccccc1SCc1ccccc1	79.8%				
CCSc1ccccc1N(CC)C(C)=O	99.5%				
CC(=O)Nc1ccc(N(Cc2ccc(C)cc2C)C(C)=O)c(SCC2CCCCC2)c1	13.6%	80.5%	25.2 µM	40.4%	
CCCCCCOc1ccccc1N(CC)C(C)=O	55.5%				
CCN(C(C)=O)c1ccccc1OCc1ccccc1	88.8%				
CCCCCCN(C(C)=O)c1ccc(NC(C)=O)cc1SCc1ccc(C)cc1C	11.1%	83%	20.7 µM	88.5%	
CCCN(C(C)=O)c1ccccc1SC	95.3%				
CCOc1ccccc1N(CC)C(C)=O	93.5%				
CCCCCCSc1cc([N+](=O)[O-])ccc1N(CCCCCC)C(C)=O	65.9%	111%		92.3%	
CCCCCCSc1cc(NC(C)=O)ccc1N(CCCCCC)C(C)=O	36.6%	93.6%	24.9 µM	73.9%	
CCN(CC)c1ccccc1SC	97.2%				
CCCCCCN(C(C)=O)c1ccc(NC(C)=O)cc1SCC1CCCCC1	35.9%	98.2%	20.4 µM	117%	
CCCCCCN(C(C)=O)c1ccccc1OCCC	51.5%				

SMILES	growth at 30 µM (MCF7 [1])	viability at 48 h, 30 µM [2]	IC50 (MCF7 [3])	growth at 30 µM (LNCaP [4])	also measured
CCCCCCSc1ccccc1N(CC)C(C)=O	67.7%				
CCSc1ccccc1N(CC)CC	99.7%				
CCN(C(C)=O)c1ccccc1SCc1ccccc1	95.3%				
CCOc1ccccc1N(Cc1ccccc1)C(C)=O	87.6%				
CC(=O)Nc1ccc(N(CC2CCCCC2)C(C)=O)c(SCC2CCCCC2)c1	7.52%	86.2%	16.6 µM	29.7%	Activity (MCF7 [5]): Active; IC50 (LNCaP [6]): 9.16 µM; Activity (MCF7 [7]): Active
CCCCCCN(C(C)=O)c1ccccc1SCCC	47.6%				
CCCSc1ccccc1N(CC)C(C)=O	89.1%				
O=c1[nH]cc(F)c(=O)[nH]1 [FLUOROURACIL]	28.3%	86.8%	3.18 µM	58.8%	Activity (MCF7 [8]): Active; IC50 (LNCaP [6]): 5.21 µM; Activity (MCF7 [7]): Active
CS(=O)(=O)Nc1ccc([N+](=O)[O-])cc1Oc1ccccc1 [NIMESULIDE]	42.5%	89.3%	> 100 µM	73.8%	Activity (MCF7 [8]): Active; IC50 (LNCaP [6]): 26.7 µM; Activity (MCF7 [7]): Active
CCSc1ccccc1N(Cc1ccccc1)C(C)=O	89.4%				
CC(=O)Nc1ccc(N(CC2CCCCC2)C(C)=O)c(SCc2ccc(C)cc2C)c1	9.08%	79.7%	20.8 µM	23%	IC50 (LNCaP [6]): 9.71 µM
CC(=O)N(Cc1ccccc1C)c1ccccc1SCc1ccccc1C	13.7%				
CCCCCCSc1cc(NC(C)=O)ccc1N(CC1CCCCC1)C(C)=O	24.2%	82.8%	21 µM	49.8%	
CCCCCCSc1cc(NC(C)=O)ccc1N(Cc1ccc(C)cc1C)C(C)=O	6.86%	80.1%	21.6 µM	19.1%	Activity (MCF7 [5]): Active; IC50 (LNCaP [6]): 13.9 µM; Activity (MCF7 [7]): Active
OO [HYDROGEN PEROXIDE]					growth at 1000 µM (LNCaP [9]): 2.15%; growth at 1000 µM (MCF7 [10]): 4.44%; viability at 48 h, 1000 µM [11]: 15.5%
